Test system: IL-2 production
Test: Inhibition of IL-2 production in PHA-activated Jurkat cells (ELISA)
Assay type: cell-based
Settings: Homo sapiens, PHA 2.5 μg/mL, 20 hours, IL-2 ELISA
Experimental: Jurkat cells were placed in a 96 well plate (0.5 million cells per well in 1% FBS medium) then a test compound of this invention was added at different concentrations. After 10 minutes, the cells were activated with PHA (final concentration 2.5 μg/mL) and incubated for 20 hours at 37° C. under CO2. The final volume was 200 μL. Following incubation, the cells were centrifuged and the supernatants were collected and stored at −70° C. prior to assaying for IL-2 production. A commercial ELISA kit (IL-2 Eli-pair, Diaclone Research, Besancon, France) was used to detect production of IL-2, from which dose response curves were obtained. The IC50 value was calculated as the concentration at which 50% of maximum IL-2 production after stimulation was inhibited versus a non-stimulation control.

| IC50 | SMILES |
| --- | --- |
| 929 nM | COc1cccc(C(=O)Nc2cnc(-n3c(C(F)(F)F)nc4cc(OC)ccc43)cn2)c1 [Compound 104, 3-Methoxy-N-[5-(5-methoxy-2-trifluoromethyl-benzoimidazol-1-yl)-pyrazin-2-yl]-benzamide] |
| > 1000 nM | COc1ccc2c(c1)nc(C(F)(F)F)n2-c1cnc(NC(=O)c2cc(C)cc(C)c2)cn1 [Compound 121, N-[5-(5-Methoxy-2-trifluoromethyl-benzoimidazol-1-yl)-pyrazin-2-yl]-3,5-dimethyl-benzamide] |
| 50 nM | COc1ccc2c(c1)nc(C(F)(F)F)n2-c1cnc(NC(=O)c2ccc(SC)cc2)cn1 [Compound 119, N-[5-(5-Methoxy-2-trifluoromethyl-benzoimidazol-1-yl)-pyrazin-2-yl]-4-methylsulfanyl-benzamide] |
| 170 nM | COc1ccc2c(c1)nc(C(F)(F)F)n2-c1cnc(NC(=O)c2cccc(C)c2)cn1 [Compound 116, N-[5-(5-Methoxy-2-trifluoromethyl-benzoimidazol-1-yl)-pyrazin-2-yl]-3-methyl-benzamide] |
| 279 nM | CCCc1ccc(C(=O)Nc2cnc(-n3c(C(F)(F)F)nc4cc(OC)ccc43)cn2)cc1 [Compound 109, N-[5-(5-Methoxy-2-trifluoromethyl-benzoimidazol-1-yl)-pyrazin-2-yl]-4-propyl-benzamide] |
| > 1000 nM | COc1ccc2c(c1)nc(C(F)(F)F)n2-c1cnc(NC(=O)c2ccc(C(F)(F)F)cc2OC)cn1 [Compound 144, 2-Methoxy-N-[5-(5-methoxy-2-trifluoromethyl-benzoimidazol-1-yl)-pyrazin-2-yl]-4-trifluoromethyl-benzamide] |
| 78 nM | COc1ccc2c(c1)nc(C(F)(F)F)n2-c1cnc(NC(=O)c2ccc(C)cc2C)cn1 [Compound 94, N-[5-(5-Methoxy-2-trifluoromethyl-benzoimidazol-1-yl)-pyrazin-2-yl]-2,4-dimethyl-benzamide] |
| 18 nM | COc1ccc2c(c1)nc(C(F)(F)F)n2-c1cnc(NC(=O)c2cc([N+](=O)[O-])ccc2C)cn1 [Compound 146, N-[5-(5-Methoxy-2-trifluoromethyl-benzoimidazol-1-yl)-pyrazin-2-yl]-2-methyl-5-nitro-benzamide] |
| 19 nM | COc1ccc2c(c1)nc(C(F)(F)F)n2-c1cnc(NC(=O)c2ccc(Cl)cc2Cl)cn1 [Compound 110, 2,4-Dichloro-N-[5-(5-methoxy-2-trifluoromethyl-benzoimidazol-1-yl)-pyrazin-2-yl]-benzamide] |
| 29 nM | COC(=O)c1ccc2c(c1)nc(C(F)(F)F)n2-c1cnc(NC(=O)c2c(F)cccc2F)cn1 [Compound 25, 1-[5-(2,6-Difluoro-benzoylamino)-pyrazin-2-yl]-2-trifluoromethyl-1H-benzoimidazole-5-carboxylic acid methyl ester] |
| 88 nM | CCOC(=O)c1cccc(C(=O)Nc2cnc(-n3c(C(F)(F)F)nc4cc(OC)ccc43)cn2)c1 [Compound 114, N-[5-(5-Methoxy-2-trifluoromethyl-benzoimidazol-1-yl)-pyrazin-2-yl]-isophthalamic acid ethyl ester] |
| 99 nM | COc1ccc2c(c1)nc(C(F)(F)F)n2-c1cnc(NC(=O)c2ccccc2C(F)(F)F)cn1 [Compound 145, N-[5-(5-Methoxy-2-trifluoromethyl-benzoimidazol-1-yl)-pyrazin-2-yl]-2-trifluoromethyl-benzamide] |
| 307 nM | COc1ccc2c(c1)nc(C(F)(F)F)n2-c1cnc(NC(=O)c2ccc([N+](=O)[O-])cc2)cn1 [Compound 97, N-[5-(5-Methoxy-2-trifluoromethyl-benzoimidazol-1-yl)-pyrazin-2-yl]-4-nitro-benzamide] |
| 57 nM | COc1ccc2c(c1)nc(C(F)(F)F)n2-c1cnc(NC(=O)c2cccc(Br)c2)cn1 [Compound 108, 3-Bromo-N-[5-(5-methoxy-2-trifluoromethyl-benzoimidazol-1-yl)-pyrazin-2-yl]-benzamide] |

From patent US8119643B2, “Benzoimidazolyl-pyrazine compounds for inflammation and immune-related uses” (Synta Pharmaceuticals Corp., priority 2006, dated 2012)
